Results from paper PMC2823940 (Bioorganic chemistry, 2009).
Entries after “also recorded” stand apart in the source; their conditions may differ.

How the values were obtained:
[1] = biological target: T1, HpAgD (Helicobacter pylori, UniProt O24890); experiment: Inactivation kinetics of HpAgD; format: biochemical
[2] = biological target: T1, HpAgD; experiment: Site of inactivator modification; conditions: 5 eq. inactivator, 30 min, tryptic digest
[3] = biological target: PAD4 (Homo sapiens, UniProt Q9UM07); experiment: PAD4 inhibition; format: biochemical; conditions: for inhibition of PAD4: concentrations as high as 1 mM
[4] = Stability in aqueous buffer; format: physicochemical; conditions: not shown
[5] = biological target: T1, HpAgD; experiment: Irreversibility of inactivation; format: biochemical; conditions: 1.0 mM inhibitor, 1 h at 37 °C, dialyzed 20 h
[6] = biological target: T1, HpAgD; experiment: Substrate protection experiments; format: biochemical; conditions: agmatine 0.5 vs 1.0 mM; ABFA 500 μM or ABCA 175 μM
[7] = biological target: T1, HpAgD; experiment: Determination of IC50 values against HpAgD; format: biochemical; conditions: for inhibition of HpAgD: concentrations as high as 500 μM
[8] = biological target: T2, Wild Type HpAgD (Helicobacter pylori, UniProt O24890); experiment: HpAgD activity assay; conditions: for ability to serve as HpAgD substrate: known PAD substrates
T2 sequence (O24890 1-330): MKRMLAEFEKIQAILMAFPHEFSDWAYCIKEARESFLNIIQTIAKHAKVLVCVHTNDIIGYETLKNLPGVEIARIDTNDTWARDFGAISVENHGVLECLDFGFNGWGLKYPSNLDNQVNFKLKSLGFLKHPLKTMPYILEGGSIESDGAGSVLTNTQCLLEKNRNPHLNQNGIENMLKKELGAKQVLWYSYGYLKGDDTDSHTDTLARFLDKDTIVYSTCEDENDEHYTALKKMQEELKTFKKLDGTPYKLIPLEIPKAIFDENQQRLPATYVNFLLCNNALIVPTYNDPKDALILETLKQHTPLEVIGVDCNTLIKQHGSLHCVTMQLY

[9] = system: D198A HpAgD; format: biochemical, Helicobacter pylori
[10] = biological target: T1, HpAgD; experiment: Metal inhibition of HpAgD; format: biochemical; conditions: 15 min pre-incubation with metal ion, 5.0 mM agmatine
[11] = system: N=C(N)NCCCCN; experiment: purified protein, by the assay type; conditions: other: steady state, D198A HpAgD; pH 8.0; 37.0 °C
[12] = biological target: Helicobacter pylori agmatine deiminase (HpAgD), untagged wild type (Helicobacter pylori) (UniProt O24890); experiment: SEC
[13] = substrate: N=C(N)NCCCCN; experiment: purified protein, by the assay type; conditions: other: steady state, Wild Type HpAgD, pH 8.0, 37 °C
[14] = read-out: IC50 HpAgD, 15 min pre-incubation, 0.5 mM Agmatine

PAD4, sequence (Q9UM07 whole entry): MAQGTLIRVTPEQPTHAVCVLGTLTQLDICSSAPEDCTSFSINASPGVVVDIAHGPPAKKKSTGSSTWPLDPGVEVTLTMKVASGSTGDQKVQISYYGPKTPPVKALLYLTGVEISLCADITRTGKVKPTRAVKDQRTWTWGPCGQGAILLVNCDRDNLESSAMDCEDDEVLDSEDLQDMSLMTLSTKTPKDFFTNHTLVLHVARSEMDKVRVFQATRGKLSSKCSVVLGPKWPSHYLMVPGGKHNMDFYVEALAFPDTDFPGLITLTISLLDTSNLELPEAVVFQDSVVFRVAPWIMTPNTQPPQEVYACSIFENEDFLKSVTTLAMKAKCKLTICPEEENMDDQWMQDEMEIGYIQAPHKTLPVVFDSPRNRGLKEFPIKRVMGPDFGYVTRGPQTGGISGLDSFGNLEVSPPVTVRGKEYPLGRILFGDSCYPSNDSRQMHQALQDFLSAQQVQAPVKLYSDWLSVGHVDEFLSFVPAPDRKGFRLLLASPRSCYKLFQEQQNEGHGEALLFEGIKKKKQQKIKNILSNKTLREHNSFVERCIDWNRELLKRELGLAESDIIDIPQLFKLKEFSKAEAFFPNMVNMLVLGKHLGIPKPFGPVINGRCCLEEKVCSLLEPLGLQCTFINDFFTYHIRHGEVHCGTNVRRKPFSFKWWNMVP

N=C(CCl)NCCCCN [ABCA, N-(4-aminobutyl)-2-chloro-ethanimidamide]
Ki [1]: 1200 ± 234 µM
kinact/KI [1]: 208 M⁻¹ s⁻¹
site of modification [2]: modifying Cys324
IC50 [3]: > 1 mM
inhibition of PAD4 [3]: essentially no inhibition was observed
stability in aqueous buffer [4]: excellent stability
residual activity after dialysis (irreversibility) [5]: enzyme activity was not recovered; also recorded: irreversibly inhibit HpAgD
substrate protection against inactivation [6]: substrate can protect against enzyme inactivation
IC50 [7]: 0.87 ± 0.03 µM

N=C(CF)NCCCCN [ABFA, N-(4-aminobutyl)-2-fluoro-ethanimidamide]
Ki [1]: 530 ± 150 µM
kinact/KI [1]: 66.7 M⁻¹ s⁻¹
site of modification [2]: modifying Cys324
IC50 [3]: > 1 mM
inhibition of PAD4 [3]: essentially no inhibition was observed
stability in aqueous buffer [4]: excellent stability
residual activity after dialysis (irreversibility) [5]: enzyme activity was not recovered; also recorded: irreversibly inhibit HpAgD
substrate protection against inactivation [6]: substrate can protect against enzyme inactivation
IC50 [7]: 6.8 ± 0.26 µM

NCCCCN=C(N)N [Agmatine]
rate (kcat/Km) relative to all other substrates tested ([8]; Wild Type HpAgD): > 10^4 fold
kcat ([8]; steady state, Wild Type HpAgD, pH 8.0, 37 °C): ~ 5 min^−1
decrease in kcat, D198A vs wild type [9]: 17 fold
increase in Km, D198A vs wild type [9]: 5 fold

NC(=O)[C@H](CCCN=C(N)N)NC(=O)c1ccccc1 [BAA, N-α-Benzoyl-L-arginine amide]
ability to serve as HpAgD substrate [8]: none of these compounds served as a substrate

CCOC(=O)[C@H](CCCN=C(N)N)NC(=O)c1ccccc1 [BAEE, N-α-Benzoyl-L-arginine ethyl ester]
ability to serve as HpAgD substrate [8]: none of these compounds served as a substrate

COC(=O)[C@H](CCCNC(=N)N)NC(=O)c1ccccc1 [BAME, N-α-Benzoyl-L-arginine methyl ester]
ability to serve as HpAgD substrate [8]: none of these compounds served as a substrate

NC(=O)[C@H](CCCN=C(N)CCl)NC(=O)c1ccccc1 [Cl-amidine]
inhibition of HpAgD [7]: did not afford HpAgD inhibition
IC50 [7, 14]: > 500 µM

[Co+2] [Co^2+]
IC50 [10]: 13 ± 5.5 µM

NC(=O)[C@H](CCCN=C(N)CF)NC(=O)c1ccccc1 [F-amidine]
inhibition of HpAgD [7]: did not afford HpAgD inhibition
IC50 [7, 14]: > 500 µM

[Ni+2] [Ni^2+]
IC50 [10]: 100 ± 3.9 µM

[Zn+2] [Zn^2+]
IC50 [10]: 30 ± 3 µM

Ac-SGRGK-COO^− (Ac-SGRGK-OH; UniProt P62805 2-6, looked up, fragment) [Ac-H4-5]
ability to serve as HpAgD substrate [8]: none of these compounds served as a substrate

D198A HpAgD (Helicobacter pylori 26695; D198A)
Km [11]: 170 ± 79.8 µM
kcat [11]: 0.00467 s⁻¹
kcat/Km [11]: 28.3 M⁻¹ s⁻¹

Helicobacter pylori agmatine deiminase (HpAgD), untagged wild type (from UniProt O24890 1-330) (enzyme)
stoichiometry N [12]: 2

B1: Wild Type HpAgD (Helicobacter pylori 26695) (protein)
chain: T2 sequence (O24890 1-330)
Km [13]: 33 ± 8.8 µM
kcat [13]: 0.0817 s⁻¹
kcat/Km [13]: 2450 M⁻¹ s⁻¹
